Values of other authors as cited in patent US10112976B2, “Process for the production of D-arginyl-2,6-dimethyl-L-tyrosyl-L-lysyl-L-phenylalaninamide” (Flamma S.P.A., priority 2014, dated 2018).
Non-standard residues stand in square brackets, D forms with d. Residues, ends and D or L forms follow the SMILES beside them. Dmt = Cc1cc(O)cc(C)c1C[C@H](N)C(=O)O

Key:
[1] = tested on: mouse pancreatic islets; conditions: 3 mg/kg i.p. qd for 2 weeks
[2] = tested on: N2A neuronal cell line; conditions: <1 nM; N2A cells
[3] = target: mu-opioid receptor (Homo sapiens, UniProt P35372); conditions: as stated for WO 2013/086020, WO 2004/070054, WO 2005/072295
Sequence of mu-opioid receptor (P35372 whole entry): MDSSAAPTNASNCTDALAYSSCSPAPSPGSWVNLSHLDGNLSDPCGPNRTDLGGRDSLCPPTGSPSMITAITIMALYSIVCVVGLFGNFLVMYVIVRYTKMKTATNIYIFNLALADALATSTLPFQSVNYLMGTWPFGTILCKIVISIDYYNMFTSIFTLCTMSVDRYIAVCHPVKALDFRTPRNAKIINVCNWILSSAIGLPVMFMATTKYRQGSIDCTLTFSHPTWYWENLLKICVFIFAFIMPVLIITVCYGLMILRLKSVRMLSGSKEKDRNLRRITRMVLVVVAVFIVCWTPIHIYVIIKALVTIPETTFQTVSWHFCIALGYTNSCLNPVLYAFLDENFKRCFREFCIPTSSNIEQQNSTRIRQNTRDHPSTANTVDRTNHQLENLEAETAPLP

[4] = tested on: rats with unilateral ureteral obstruction; conditions: intraperitoneal 1 and 3 mg/kg, 1 day prior to obstruction and every day for 14 days
[5] = tested on: SH—SY5Y neuronal cell line; conditions: <1 nM; SH—SY5Y cells
[6] = tested on: G93A mouse model of amyotrophic lateral sclerosis; conditions: 5 mg/kg/day i.p. starting at 30 days of age
[7] = tested on: inner mitochondrial membrane

For `Cc1cc(O)cc(C)c1C[C@H](NC(=O)[C@H](N)CCCNC(=N)N)C(=O)N[C@@H](CCCCN)C(=O)N[C@@H](Cc1ccccc1)C(N)=O` [D-Arginyl-2,6-dimethyl-L-tyrosyl-L-lysyl-L-phenylalaninamide] (H-[dR][Dmt]KF-NH2), the “apoptosis in pancreatic islets caused by streptozotocin” value [1] is given as “prevented”, the “insulin reduction in pancreatic islets caused by streptozotocin” value [1] is given as “prevented” and the “intracellular reactive oxygen species” value [2] is given as “significantly reduced”. The mitochondrial potential [2] was “increased”, the tBHP-induced apoptosis [2] was “prevented” and the “mu-opioid receptor agonist activity” value [3] was “does not have mu-opioid receptor agonist activity”. The interstitial fibrosis [4] was “significantly decreased”, the macrophage infiltration [4] was “significantly decreased” and the tubular damage [4] was “significantly decreased”. The “intracellular reactive oxygen species” value [5] was “significantly reduced”, the mitochondrial potential [5] was “increased” and the tBHP-induced apoptosis [5] was “prevented”. For the same molecule, the disease onset [6] was “significant delay” and the antioxidant activity [7] was “showed antioxidant activity”.
